Assay results from ChEMBL document CHEMBL1157845, “Structure-activity relationship of new anti-tuberculosis agents derived from oxazoline and oxazole benzyl esters” (Eur J Med Chem, 2010).
Values after ≈ are worked out from the molar mass of the structure shown. Active and inactive are the calls of the source. Unless noted, the rule behind the calls is not given here.

Tests used:
Escherichia coli = test: Antibacterial activity against Escherichia coli SG 458; type: functional, organism-based
Proteus vulgaris = test: Antibacterial activity against Proteus vulgaris OX 19; type: functional, organism-based
[1] = tested on: Mycolicibacterium smegmatis; test: Antimycobacterial activity against Mycobacterium smegmatis SG 987; type: functional, organism-based
Mycolicibacterium aurum [2] = test: Antimycobacterial activity against Mycobacterium aurum SB 66; type: functional, organism-based
Mycolicibacterium aurum [3] = test: Antimycobacterial activity against Mycobacterium aurum DSM 43536; type: functional, organism-based
Mycolicibacterium vaccae [4] = test: Antimycobacterial activity against Mycobacterium vaccae 10670; type: functional, organism-based
[5] = tested on: Mycolicibacterium fortuitum; test: Antimycobacterial activity against Mycobacterium fortuitum B; type: functional, organism-based
[6] = tested on: Sporobolomyces salmonicolor; test: Antimicrobial activity against Sporobolomyces salmonicolor SBUG 549; type: functional, organism-based
Candida albicans = test: Antifungal activity against Candida albicans; type: functional, organism-based
Colletotrichum = test: Antifungal activity against Glomerella; type: functional, organism-based
Mycobacterium avium [7] = test: Antimycobacterial activity against Mycobacterium avium MAC 100; type: functional, organism-based
Mycobacterium avium [8] = test: Antimycobacterial activity against Mycobacterium avium MAC 101; type: functional, organism-based
Mycobacterium avium [9] = test: Antimycobacterial activity against Mycobacterium avium MAC 108; type: functional, organism-based
Mycobacterium avium [10] = test: Antimycobacterial activity against Mycobacterium avium MAC 109; type: functional, organism-based
Mycobacterium avium [11] = test: Antimycobacterial activity against Mycobacterium avium MAC 116; type: functional, organism-based
Mycolicibacterium vaccae [12] = test: Antimycobacterial activity against Mycobacterium vaccae 10670 by agar diffusion assay; type: functional, organism-based
[13] = tested on: Mycolicibacterium fortuitum; test: Antimycobacterial activity against Mycobacterium fortuitum B by agar diffusion assay; type: functional, organism-based
Mus musculus [14] = test: Toxicity in mouse assessed as change in body weight at 100 mg/kg, po qd for 5 days followed by 2 days rest and 200 mg/kg, po qd for 5 days; type: organism-based; details: in vivo
Mus musculus [15] = test: Toxicity in mouse assessed as change in gross appearance at 100 mg/kg, po qd for 5 days followed by 2 days rest and 200 mg/kg, po qd for 5 days; type: organism-based; details: in vivo
Mus musculus [16] = test: Toxicity in mouse assessed as behavioral change at 100 mg/kg, po qd for 5 days followed by 2 days rest and 200 mg/kg, po qd for 5 days; type: organism-based; details: in vivo
[17] = tested on: Mycobacterium tuberculosis; test: Antimycobacterial activity against Mycobacterium tuberculosis Erdman infected in BALB/c mouse assessed as reduction of bacterial load at 200 mg/kg, po qd for 5 days per week administered 60 days after infection measured after 85 days post infection; type: functional, organism-based; set-up: dose 200 mg/kg
[18] = Chemical stability in simulated gastric fluid assessed as compound remaining after 2 hrs by HPLC analysis; type: physicochemical; details: simulated gi fluid
Liver microsomes = test: Metabolic stability in Sprague-Dawley rat microsomes assessed as compound remaining after 15 mins by HPLC analysis; type: ADME, Microsome; details: 0.25 h
[19] = tested on: Mycobacterium tuberculosis; test: Antimycobacterial activity against Mycobacterium tuberculosis H37Rv ATCC 27294 in GAS medium after 1 week by microplate alamar blue assay; type: functional; details: H37Rv ATCC 27294, 168 h
[20] = tested on: Mycobacterium tuberculosis; test: Antimycobacterial activity against Mycobacterium tuberculosis H37Rv ATCC 27294 in GAST medium after 1 week by microplate alamar blue assay; type: functional; details: H37Rv ATCC 27294, 168 h
Vero = test: Cytotoxicity against african green monkey Vero cells by colorimetric assay; type: cell-based; details: Chlorocebus sabaeus
[21] = tested on: Mycobacterium tuberculosis; test: Antimycobacterial activity against Mycobacterium tuberculosis H37Rv ATCC 27294 incubated 10 days under anaerobic condition measured after 24 hrs recovery in air by luciferase based low oxygen recovery assay; type: functional
Bacillus subtilis = test: Antibacterial activity against Bacillus subtilis ATCC 6633; type: functional, organism-based
Staphylococcus aureus = test: Antibacterial activity against Staphylococcus aureus SG 511; type: functional, organism-based
Micrococcus luteus = test: Antibacterial activity against Micrococcus luteus ATCC 10240; type: functional, organism-based

SMILES | Activity (Escherichia coli) | Activity (Proteus vulgaris) | Activity [1] | Activity (Mycolicibacterium aurum [2]) | Activity (Mycolicibacterium aurum [3]) | Activity (Mycolicibacterium vaccae [4]) | Activity [5] | Activity [6] | Activity (Candida albicans) | Activity (Colletotrichum) | Activity (Mycobacterium avium [7]) | Activity (Mycobacterium avium [8]) | Activity (Mycobacterium avium [9]) | Activity (Mycobacterium avium [10]) | Activity (Mycobacterium avium [11]) | Activity (Mycolicibacterium vaccae [12]) | Activity [13] | Activity (Mus musculus [14]) | Activity (Mus musculus [15]) | Activity (Mus musculus [16]) | further results
O=C(OCc1ccccc1)c1coc(-c2ccccc2)n1 | inactive | inactive | inactive | inactive | inactive | inactive | inactive | inactive | inactive | inactive | inactive | inactive | inactive | inactive | inactive | Active | Active | Non-toxic | Non-toxic | Non-toxic | Activity [17]: inactive; Stability [18]: 0.5%; Stability (Liver microsomes): 15%; MIC [19]: 0.47 µM (≈ 0.131 µg/mL); MIC [20]: 0.49 µM (≈ 0.137 µg/mL); IC50 (Vero): 121 µM; MIC [21]: 3.8 µM (≈ 1.06 µg/mL); Activity (Bacillus subtilis): inactive; Activity (Staphylococcus aureus): inactive; Activity (Micrococcus luteus): inactive
O=C(OCc1ccccc1)c1coc(-c2ccccc2Cl)n1 | inactive | inactive | inactive | inactive | inactive | inactive | inactive | inactive | inactive | inactive | inactive | inactive | inactive | inactive | inactive | Active | Active | Non-toxic | Non-toxic | Non-toxic | Activity [17]: inactive; Stability [18]: 4.2%; Stability (Liver microsomes): 8.8%; MIC [19]: 0.73 µM (≈ 0.229 µg/mL); MIC [20]: 1.69 µM (≈ 0.53 µg/mL); IC50 (Vero): > 128 µM; MIC [21]: 11.4 µM (≈ 3.58 µg/mL); Activity (Bacillus subtilis): inactive; Activity (Staphylococcus aureus): inactive; Activity (Micrococcus luteus): inactive
O=C(OCc1ccccc1)[C@@H]1COC(c2ccc(F)c([N+](=O)[O-])c2)=N1 | inactive | inactive | inactive | inactive | inactive | inactive | inactive | inactive | inactive | inactive | inactive | inactive | inactive | inactive | inactive | Active | Active | Non-toxic | Non-toxic | Non-toxic | Activity [17]: inactive; Stability [18]: 2.2%; Stability (Liver microsomes): 13%; MIC [19]: 6.24 µM (≈ 2.15 µg/mL); MIC [20]: 0.95 µM (≈ 0.327 µg/mL); IC50 (Vero): > 128 µM; MIC [21]: 26 µM (≈ 8.95 µg/mL); Activity (Bacillus subtilis): inactive; Activity (Staphylococcus aureus): inactive; Activity (Micrococcus luteus): inactive
